Measured values reported in patent publication US8815811B2, “Peptides and methods for their preparation and use” (Eli Lilly and Company, priority 2010, dated 2014).
Where no end group is shown, it is not given here. [ ]: non-standard residue; d: D form. 1Nal = N[C@@H](Cc1cccc2ccccc12)C(=O)O; Aib = CC(C)(N)C(=O)O

Tested on: diet-induced obese (DIO) mice
Experiment: Effects on food intake, body weight and body composition in DIO mice
Assay type: in vivo
Settings: for Fat mass loss (g fat weight change for 14 days) / Total food intake (g total for 14 days) / Overall weight loss (g weight change for 14 days): DIO mice
Protocol: Effects on Food Intake, Body Weight and Body Composition in Diet-Induced Obese (DIO) Mice
Three to four months old male diet-induced obese (DIO) mice are used. Animals are individually housed in a temperature-controlled (24° C.) facility with a 12 hour light/dark cycle (lights on 22:00), and have free access to food and water. After 2 weeks acclimation to the facility, mice are randomized to treatment groups (n=8-10/group) so that each group has similar mean body weight and fat mass. Before the experiment, mice are subcutaneously (sc) injected with vehicle solution and weighed for 7 days to acclimate them to the procedures.
Vehicle or peptide analog (dose range 10-100 nmol/Kg) dissolved in vehicle is administered by sc injection to ad libitum fed DIO mice 30-90 minutes prior to the onset of the dark cycle […] for 2 to 4 weeks. Body weight and the weight of food plus the hopper are measured at the same time. Food consumed in the last 24 hours is calculated by subtracting current weight of food plus the hopper from that of the previous day. Absolute changes in body weight are calculated by subtracting the body weight of the animal prior to the first injection. On days −1 and 14, total fat mass is measured by nuclear magnetic resonance (NMR) using an Echo Medical System (Houston, Tex.) instrument. Fat free mass is calculated by subtracting fat mass from total body weight.

Aib^2, Aib^13, Nal^22, Aib^29, Cys^43(PEG20K), Cys^44 (PEG20K)-GIP (Y[Aib]EGTFTSDYSI[Aib]LDKIAQRA[1Nal]VQWLIA[Aib]KGKKQEWKHQITQC(PEG 20 kDa)C(PEG 20 kDa)-NH2) [Example 4]
cumulative food intake and body weight compared to vehicle-treated mice (14-day DIO mouse studies, summary of Tables 6a and 6b): decreased | Fat mass loss (g fat weight change for 14 days) (Table 6a, 10 nmol/Kg): -3.6 ± 1.1 g | Total food intake (g total for 14 days) (Table 6a, 10 nmol/Kg): 28.4 ± 1.8 g | Overall weight loss (g weight change for 14 days) (Table 6a, 10 nmol/Kg sc every 3 days): -4.5 ± 0.3 g | Fat mass loss (g fat weight change for 14 days) (Table 6a, 30 nmol/Kg): -4.7 ± 0.4 g | Total food intake (g total for 14 days) (Table 6a, 30 nmol/Kg): 25.5 ± 2.6 g | Overall weight loss (g weight change for 14 days) (Table 6a, 30 nmol/Kg sc every 3 days): -6.0 ± 0.4 g | Fat mass loss (g fat weight change for 14 days) (Table 6b, 10 nmol/Kg): -3.6 ± 0.3 g | Overall weight loss (g weight change for 14 days) (Table 6b, 10 nmol/Kg): -4.9 ± 0.4 g | Total food intake (g total for 14 days) (Table 6b, 10 nmol/Kg): 26.9 ± 1.5 g
